In patent US20090226392A1, “Phosphate-Binding Polymers for Oral Administration” (priority 1993, published 2009):

Assay: Phosphate binding test: polymer stirred in phosphate containing solution at pH 7 for 3 hours
Procedure: Candidate polymers were tested by stirring them in a phosphate containing solution at pH 7 for 3 hours. The solution was designed to mimic the conditions present in the small intestine.
The pH was adjusted to pH 7, once at the start of the test and again at the end of the test, using either aqueous NaOH or HCl. After 3 hours the polymer was filtered off and the residual phosphate concentration in the test solution was determined spectrophotometrically. The difference between the initial phosphate concentration and the final concentration was used to determine the amount of phosphate bound to the polymer.

SMILES	Phosphate Bound (pH 7) [meq/g]	Phosphate Bound (Table 2, other materials, pH 7, 3 hours, residual solution phosphate ~5 mM) [meq/g]
[Ca+2].[Cl-].[Cl-] [Calcium Chloride]	4.0	
CC(O)C(=O)[O-].CC(O)C(=O)[O-].[Ca+2] (centres unmarked) [Calcium Lactate]		2.4
